In patent US20090274645A1, “GALL MIDGE PHEROMONE MIXTURE” (priority 2006, published 2009):
“Also recorded” adds a separate entry of the source. Read-outs that look alike come from different tables or passages of the source. Marks after values point to notes of the source that are not given here.

Experiments:
[1] = system: male Hessian fly antennae; assay: GC-EAD recordings of male antennal responses; parameters: species or system Mayetiola destructor; conditions: for antennal responses in males to synthetic compounds: GC-EAD, whole males mounted; for antennal responses to compounds in female gland extract: GC-EAD of female Hessian fly extract (20 female equivalents)
Excerpt: Coupled gas chromatographic-electroantennographic detection (GC-EAD, Arn et al 1975) was used to analyse female gland extracts. GC-EAD is an efficient tool to determine which compounds in an extract that the male antennae can perceive, by use of the highly specific olfactory receptor neurons. In a CC-EAD set-up (FIG. 3), the effluent of the GC column is split between the flame ionisation detector (FID) of the CC and the antennal detector (EAD). The GC separates the compounds in the extract over time and the compounds are detected by the FID. Simultaneously, the eluting compounds also pass the male antennae via a constant charcoal-filtered and humidified air stream. The male antennae are connected to two electrodes and, if the antennae perceive a compound, neural signals are generated and these signals are recorded as an electroantennogram (EAG). Since the olfactory receptors on the antennae are highly specific, they will more or less exclusively respond to the pheromone compounds in the extract. In addition to pheromone extracts, GC-EAD can be used to analyse all sorts of compound blends, e.g. host volatile collections and synthetic pheromone compounds. Irrespective of what kind of substances that are analysed, simultaneous recordings from the FID and the EAD give information on which compounds in the blend that are interesting for chemical identification and/or behavioural testing.
In addition to gland extracts, GC-EAD was used to analyse seven synthetic compounds (Table 2).
A Hewlett-Packard 6890 GC (Palo Alto, Calif., USA) with flame ionization detection and an Innowax column (30 m×0.25 mm ID, H-P) was used for the GC-EAD recordings. The column was programmed from 80° C./2 min to 220° C. at 10° C./min. Since male Hessian fly antennae are very sensitive to desiccation whole male bodies instead of excised antennae were mounted in an antenna holder (JoAC, Lund, Sweden) (FIG. 4). The antennal holder is made of Plexiglas with two wells connected to an amplifier by gold wire electrodes and males were mounted in the antennal holder as described by Hillbur et al (2001). The antennae were exposed to a charcoal-filtered and humidified air stream at a rate of ca 0.3 m/s through a glass tube (8 mm diameter). The signals from the antennae were amplified (JoAC) before they were recorded and analysed with ElectroAntennoGraphy software (Syntech, Hilversum, The Netherlands).

[2] = system: male Hessian flies (antennal responses); conditions: Hillbur et al unpublished, cited from earlier work; for elicit antennal responses in male Hessian flies: GC-EAD; for known to elicit antennal responses (mark in Table 2): earlier GC-EAD
[3] = system: male Hessian flies; conditions: wind tunnel, Harris and Foster (1991); cited from earlier work
[4] = system: male Hessian flies; conditions: field study, main compound alone, cited from earlier work
[5] = system: male Hessian flies; assay: Y-tube olfactometer two-choice bioassays; type: in vivo, Mayetiola destructor
Excerpt: The attractiveness of different synthetic pheromone blends and female gland extracts were studied in a mobile glass Y-tube olfactometer, (FIG. 5a). The arms of the Y-tube were 14 cm long, the stem 12.5 cm and the inner diameter was 2.2 cm. Charcoal-filtered and humidified air was pumped (Micro pump NMP 30 KNDC, 12 V, KNF Neuberger, Germany) through Teflon tubes and entered each arm via a custom made 9.5 cm long glass tube, (Humi Glas, Södra Sandby, Sweden) (FIG. 5b). […] In the centre of the glass tube was a glass rod (ca 1 cm long; 0.5 cm diameter) containing a centred small hole. During experiments, the stimulus was applied on a small piece of filter paper (1.5×0.5 cm) attached to a ca 1.5 cm long steel wire. The steel wire was placed in the hole of the glass rod to position the stimulus in the centre of the tube. […]
Six different two-choice bioassays were performed to evaluate differences in attractiveness of the main pheromone component (abbreviated: 1), 2S-E10-13:OAc, a three-component blend (abbreviated: 3) consisting of 2S-E10-13:OAc, 2S-E10-13:OH and 2S-13:OAc, and two different four-component blends, both consisting of the compounds included in the three-component blend but with either 2S-E8-E10-13:OAc (abbreviated: 4E) or 2S-Z8-E10-13:OAc (abbreviated: 4Z) added. […] Data from the […] bioassays were analysed by chi-square tests.

Structure (SMILES) | antennal responses in males to synthetic compounds [1] | antennal responses to compounds in female gland extract [1] | elicit antennal responses in male Hessian flies [2] | known to elicit antennal responses (mark in Table 2) [2] | further results
CC/C=C/C=C\CCCCC[C@H](C)OC(C)=O [2S-Z8-E10-13:OAc, (2S,8Z,10E)-8,10-tridecadien-2-yl acetate] | elicited antennal responses; also recorded: males respond; also recorded: responded | – | – | – | –
CC/C=C/CCCCCCC[C@H](C)O [2S-E10-13:OH, (2S,10E)-10-tridecen-2-ol] | responded | antennal responses | elicit antennal responses | (2S-E10-13:OH) * | antennal responses in males to synthetic compounds ([1]; listed as 2S-E0-13:OH): elicited antennal responses
CC/C=C\CCCCCCC[C@H](C)OC(C)=O [2S-Z10-13:OAc] | a response was recorded | antennal responses | – | – | antennal responses to compounds in female gland extract ([1]; listed as 23-Z10-13:OAc): respond
CC/C=C/CCCCCCCCC[C@H](C)OC(C)=O [2S-E12-15:OAc, (2S,12E)-12-pentadecen-2-yl acetate] | did not elicit antennal responses; also recorded: No responses were recorded | – | – | – | –
CCCC/C=C/CCCCCCC[C@H](C)OC(C)=O [2S-E10-15:OAc, (2S,10E)-10-pentadecen-2-yl acetate] | did not elicit antennal responses; also recorded: No responses were recorded | – | – | – | –
CCCCCCCCCCC[C@H](C)OC(C)=O [2S-13:OAc, (2S)-tridecan-2-yl acetate] | elicited antennal responses; also recorded: responded | antennal responses | elicit antennal responses | (2S-13:OAc) * | –
CC/C=C/CCCCCCC[C@H](C)OC(C)=O [2S-E10-13:OAc, (2S,10E)-10-tridecen-2-yl acetate] | elicited antennal responses; also recorded: responded | antennal responses | elicit antennal responses | (2S-E10-13:OAc) * | males that contacted the odour source [3]: 56%; catch of male Hessian flies in the field [4]: did not catch any male Hessian flies; catch of male Hessian flies in the field ([4]; listed as main component): did not catch any males; responding males attracted when compared to blank ([5]; Y-tube, main component alone versus blank): over 90%; attractiveness to males versus blank ([5]; blank-1 bioassay, 10 ng, p<0.001): significantly more attracted
CC/C=C/C=C/CCCCC[C@H](C)OC(C)=O [2S-E8-E10-13:OAc, (2S,8E,10E)-8,10-tridecadien-2-yl acetate] | elicited antennal responses; also recorded: males respond; also recorded: responded | – | – | – | –
